Test results from patent US20210386071A1, “ANTI-NON-ENVELOPED VIRUS AGENT AND COMPOSITION CONTAINING SAME, AND ANTI-VIRAL PRODUCT AND METHOD FOR PRODUCING SAME” (TOAGOSEI CO., LTD., priority 2018, published 2021).

Test system: feline calicivirus
Test: Antiviral activity value (Mv) by methods of JIS L 1922, plaque count measurement of virus infectivity
Procedure: The performance of each of the above antiviral agents was evaluated by applying methods shown in JIS L 1922 (antiviral property test method of fiber product), and an antiviral activity value (Mv) obtained was used to determine the antiviral property. […] Purified water was added to the antiviral agent so that its concentration was 0.1% by mass. Next, 100 μL of feline calicivirus solution having a virus infectivity of 1 to 5×10^7 PFU/mL was added to 900 μL of the above liquid, and a mixed liquid was allowed to stand at a temperature of 25° C. for 2 hours. Thereafter, the mixed liquid was recovered, and the recovered liquid was subjected to a plaque count measurement method to measure the virus infectivity. The virus infectivity was measured in the same manner as the test sample except that 900 μL of phosphate buffered saline (PBS) was used as a control sample instead of the test sample. The performance of the antiviral agent was evaluated by the antiviral activity value (Mv) obtained by the following formula. Mv=Log (virus infectivity of control sample)−Log (virus infectivity of test sample)

[Ca+2].[OH-].[OH-] [V3, calcium hydroxide]
Antiviral activity value Mv: 4.2
antiviral properties (assessment in words): excellent antiviral properties
